Molecules are shown by their SMILES.

The values below come from US11236069B2, “KIF18A inhibitors” (AMGEN INC., priority 2018, dated 2022).

For the first test, the target named is Recombinant human KIF18A (1-467 His-tagged) protein (Homo sapiens (Human), UniProt Q8NI77). In words: KIF18A Enzyme Assay: microtubule-stimulated ATPase activity (ADP-Glo). Conditions: read-out: KIF18A ATPase IC50. In general terms: In ADP-Glo the light output rises with the ADP produced.
Sequence of Recombinant human KIF18A (1-467 His-tagged) protein (Q8NI77 1-467): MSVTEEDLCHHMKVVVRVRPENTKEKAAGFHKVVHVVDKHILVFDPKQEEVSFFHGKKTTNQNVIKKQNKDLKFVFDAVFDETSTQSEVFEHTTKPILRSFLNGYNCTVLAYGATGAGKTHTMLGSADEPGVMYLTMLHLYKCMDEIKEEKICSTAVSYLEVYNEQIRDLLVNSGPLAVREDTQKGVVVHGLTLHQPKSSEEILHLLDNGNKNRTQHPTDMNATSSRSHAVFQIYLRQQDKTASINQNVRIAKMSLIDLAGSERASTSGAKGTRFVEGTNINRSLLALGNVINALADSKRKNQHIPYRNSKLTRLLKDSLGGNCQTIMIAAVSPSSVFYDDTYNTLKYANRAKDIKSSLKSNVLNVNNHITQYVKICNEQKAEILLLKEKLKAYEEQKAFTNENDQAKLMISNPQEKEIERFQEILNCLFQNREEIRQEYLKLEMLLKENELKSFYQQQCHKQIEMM
Sequence of Recombinant human KIF18A (1-467 His-tagged) protein (P02550 whole entry partner): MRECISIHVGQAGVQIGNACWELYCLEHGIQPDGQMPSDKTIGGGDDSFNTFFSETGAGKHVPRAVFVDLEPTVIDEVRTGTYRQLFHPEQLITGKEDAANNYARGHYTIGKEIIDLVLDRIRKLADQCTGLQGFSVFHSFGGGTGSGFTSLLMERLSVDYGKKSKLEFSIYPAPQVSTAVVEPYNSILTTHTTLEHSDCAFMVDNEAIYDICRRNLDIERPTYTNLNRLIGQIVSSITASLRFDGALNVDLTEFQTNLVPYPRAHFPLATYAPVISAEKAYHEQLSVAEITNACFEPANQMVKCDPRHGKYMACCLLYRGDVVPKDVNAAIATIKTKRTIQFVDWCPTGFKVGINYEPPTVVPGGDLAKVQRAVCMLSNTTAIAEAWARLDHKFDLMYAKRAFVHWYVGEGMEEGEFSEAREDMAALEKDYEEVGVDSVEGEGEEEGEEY
Sequence of Recombinant human KIF18A (1-467 His-tagged) protein (P02554 whole entry partner): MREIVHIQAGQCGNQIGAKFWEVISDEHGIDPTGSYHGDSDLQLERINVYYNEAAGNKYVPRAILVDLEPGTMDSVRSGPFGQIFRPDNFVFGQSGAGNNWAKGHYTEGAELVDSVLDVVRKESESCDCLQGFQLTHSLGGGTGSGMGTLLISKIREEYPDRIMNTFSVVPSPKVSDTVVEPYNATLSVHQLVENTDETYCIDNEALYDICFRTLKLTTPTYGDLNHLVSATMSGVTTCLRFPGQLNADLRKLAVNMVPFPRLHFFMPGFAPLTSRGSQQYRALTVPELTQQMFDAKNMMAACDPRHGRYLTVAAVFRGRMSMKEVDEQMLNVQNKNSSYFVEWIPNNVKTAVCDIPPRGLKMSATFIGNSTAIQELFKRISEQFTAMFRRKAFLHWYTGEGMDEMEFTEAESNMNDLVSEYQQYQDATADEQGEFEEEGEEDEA
Description: KIF18A Enzyme Assay: Microtubule-stimulated ATPase activity assay is used to measure KIF18A enzyme activity after treatment with compound. Compounds were 2-fold serially diluted in DMSO (Sigma Inc) over 22-point concentration range. […] The assay measures ADP formed from the ATPase reaction.
Usually IC50 stands for the midpoint of a concentration-inhibition curve. Take `Cc1cc(NC(=O)c2ccc(NS(=O)(=O)[C@H](C)CO)cc2N2CCC3(CC2)CC3)nc(N2CCC(F)(F)CC2)n1` [Example 5-1, (R)-N-(2-(4,4-Difluoropiperidin-1-yl)-6-methylpyrimidin-4-yl)-4-((2-hydroxy-1-methylethyl)sulfonamido)-2-(6-azaspiro[2.5]octan-6-yl)benzamide]: the IC50 stood at 62 nM.

As for `Cc1cc(NC(=O)c2ccc(NS(=O)(=O)[C@@H](C)CO)cc2N2CCC3(CC2)CC3)nc(N2CCC(F)(F)CC2)n1` [Example 5-2, (S)-N-(2-(4,4-Difluoropiperidin-1-yl)-6-methylpyrimidin-4-yl)-4-((2-hydroxy-1-methylethyl)sulfonamido)-2-(6-azaspiro[2.5]octan-6-yl)benzamide], the IC50 was found to be 70 nM.

Staying with this test, now noted: read-out: KIF18A ATPase IC50; 30 nM KIF18A, 30 μg/mL pig microtubules, ATP at Km 75 μM, ADP-Glo luminescence.
`Cc1cc(NC(=O)c2ccc(S(=O)(=O)NC3(C)COC3)cc2N2CCC3(CC2)CC3)nc(N2CCC(F)(F)CC2)n1` [Example 2-5, N-(2-(4,4-Difluoropiperidin-1-yl)-6-methylpyrimidin-4-yl)-4-(N-(3-methyloxetan-3-yl)sulfamoyl)-2-(6-azaspiro[2.5]octan-6-yl)benzamide]: the IC50 was 103 nM. The same measure, in the same setting: as for `Cc1cc(NC(=O)c2ccc(S(C)(=O)=O)cc2N2CCC3(CC2)CC3)nc(N2CCC(F)(F)CC2)n1` [Example 2-6, N-(2-(4,4-Difluoropiperidin-1-yl)-6-methylpyrimidin-4-yl)-4-(methylsulfonyl)-2-(6-azaspiro[2.5]octan-6-yl)benzamide], the figure is 260 nM. Still for that read-out and setting: to `C[C@@H]1CN(c2nccc(NC(=O)c3ccc(S(C)(=O)=O)cc3N3CCC4(CC3)CC4)n2)CCO1` [Example 2-7, (R)-N-(2-(2-Methylmorpholino)pyrimidin-4-yl)-4-(methylsulfonyl)-2-(6-azaspiro[2.5]octan-6-yl)benzamide] belongs 240 nM; to `Cc1cc(NC(=O)c2ccc(NS(=O)(=O)C3(C)CC3)cc2N2CCC3(CC2)CC3)nc(N2CCC(F)(F)CC2)n1` [Example 2-8, N-(2-(4,4-Difluoropiperidin-1-yl)-6-methylpyrimidin-4-yl)-4-((1-methylcyclopropan)-1-sulfonamido)-2-(6-azaspiro[2.5]octan-6-yl)benzamide], 713 nM. On to `Cc1cc(NC(=O)c2ccc(NS(=O)(=O)CCO)cc2N2CCC3(CC2)CC3)nc(N2CCO[C@H](C)C2)n1` [Example 3, (R)-4-((2-Hydroxyethyl)sulfonamido)-N-(6-methyl-2-(2-methylmorpholino)pyrimidin-4-yl)-2-(6-azaspiro[2.5]octan-6-yl)benzamide], for which the IC50 was found to be 57 nM. On the same count and under the same terms, to `Cc1cc(NC(=O)c2ccc(NS(=O)(=O)CF)cc2N2CCC3(CC2)CC3)nc(N2CCC(F)CC2)n1` [Example 6-1, 4-((Fluoromethyl)sulfonamido)-N-(2-(4-fluoropiperidin-1-yl)-6-methylpyrimidin-4-yl)-2-(6-azaspiro[2.5]octan-6-yl)benzamide] belongs 62 nM; to `Cc1cc(NC(=O)c2ccc(NS(=O)(=O)CF)cc2N2CCC3(CC2)CC3)nc(N2CCC(F)(F)CC2)n1` [Example 6-2, N-(2-(4,4-Difluoropiperidin-1-yl)-6-methylpyrimidin-4-yl)-4-((fluoromethyl)sulfonamido)-2-(6-azaspiro[2.5]octan-6-yl)benzamide], 42 nM. In the case of `Cc1cc(NC(=O)c2ccc(NS(=O)(=O)CF)cc2N2CCC3(CC2)CC3)nc(N2CCO[C@H](C)C2)n1` [Example 6-3, (R)-4-((Fluoromethyl)sulfonamido)-N-(6-methyl-2-(2-methylmorpholino)pyrimidin-4-yl)-2-(6-azaspiro[2.5]octan-6-yl)benzamide], the IC50 was 79 nM. In the case of `C[C@@H]1CN(c2nccc(NC(=O)c3ccc(NS(=O)(=O)CCO)cc3N3CCC4(CC3)CC4)n2)CCO1` [Example 6-4, (R)-4-((2-Hydroxyethyl)sulfonamido)-N-(2-(2-methylmorpholino)pyrimidin-4-yl)-2-(6-azaspiro[2.5]octan-6-yl)benzamide], the IC50 came to 32 nM. As to `Cc1cc(NC(=O)c2ccc(NS(C)(=O)=O)cc2N2CCC3(CC2)CC3)nc(N2CCO[C@H](C)C2)n1` [Example 6-5, (R)-N-(6-Methyl-2-(2-methylmorpholino)pyrimidin-4-yl)-4-(methylsulfonamido)-2-(6-azaspiro[2.5]octan-6-yl)benzamide], the IC50 was found to be 120 nM. As to `CCS(=O)(=O)Nc1ccc(C(=O)Nc2cc(C)nc(N3CCO[C@H](C)C3)n2)c(N2CCC3(CC2)CC3)c1` [Example 6-6, (R)-4-(Ethylsulfonamido)-N-(6-methyl-2-(2-methylmorpholino)pyrimidin-4-yl)-2-(6-azaspiro[2.5]octan-6-yl)benzamide], the half-inhibitory concentration (IC50) is 67 nM. In the case of `CCS(=O)(=O)Nc1ccc(C(=O)Nc2cc(C)nc(N3CCC(F)(F)CC3)n2)c(N2CCC3(CC2)CC3)c1` [Example 6-7, N-(2-(4,4-Difluoropiperidin-1-yl)-6-methylpyrimidin-4-yl)-4-(ethylsulfonamido)-2-(6-azaspiro[2.5]octan-6-yl)benzamide], the half-inhibitory concentration (IC50) is 122 nM. With `Cc1cc(NC(=O)c2ccc(NS(=O)(=O)CCCO)cc2N2CCC3(CC2)CC3)nc(N2CCO[C@H](C)C2)n1` [Example 6-8, (R)-4-((3-Hydroxypropyl)sulfonamido)-N-(6-methyl-2-(2-methylmorpholino)pyrimidin-4-yl)-2-(6-azaspiro[2.5]octan-6-yl)benzamide], the IC50 was determined as 107 nM. Regarding `Cc1cc(NC(=O)c2ccc(N3CCOCS3(=O)=O)cc2N2CCC3(CC2)CC3)nc(N2CCC(F)(F)CC2)n1` [Example 6-9, N-(2-(4,4-Difluoropiperidin-1-yl)-6-methylpyrimidin-4-yl)-4-(3,3-dioxido-1,3,4-oxathiazinan-4-yl)-2-(6-azaspiro[2.5]octan-6-yl)benzamide], the IC50 is 246 nM. Turning to `Cc1cc(NC(=O)c2ccc(NS(=O)(=O)C3CCCC3)cc2N2CCC3(CC2)CC3)nc(N2CCC(F)(F)CC2)n1` [Example 6-10, 4-(Cyclopentanesulfonamido)-N-(2-(4,4-difluoropiperidin-1-yl)-6-methylpyrimidin-4-yl)-2-(6-azaspiro[2.5]octan-6-yl)benzamide], the 50% inhibitory concentration (IC50) was 2420 nM. On to `Cc1cc(NC(=O)c2ccc(NS(=O)(=O)C3CCC3)cc2N2CCC3(CC2)CC3)nc(N2CCC(F)(F)CC2)n1` [Example 6-11, 4-(Cyclobutanesulfonamido)-N-(2-(4,4-difluoropiperidin-1-yl)-6-methylpyrimidin-4-yl)-2-(6-azaspiro[2.5]octan-6-yl)benzamide], for which the IC50 was 127 nM. Still for that read-out and setting: as for `Cc1cc(NC(=O)c2ccc(NS(=O)(=O)C3COC3)cc2N2CCC3(CC2)CC3)nc(N2CCC(F)(F)CC2)n1` [Example 6-12, N-(2-(4,4-Difluoropiperidin-1-yl)-6-methylpyrimidin-4-yl)-4-(oxetane-3-sulfonamido)-2-(6-azaspiro[2.5]octan-6-yl)benzamide], the figure is 40 nM. For `Cc1cc(NC(=O)c2ccc(NS(=O)(=O)C3CCC3)cc2N2CCC3(CC2)CC3)nc(N2CC(F)(F)C2)n1` [Example 6-13, 4-(Cyclobutanesulfonamido)-N-(2-(3,3-difluoroazetidin-1-yl)-6-methylpyrimidin-4-yl)-2-(6-azaspiro[2.5]octan-6-yl)benzamide], the IC50 is 52 nM. `Cc1cc(NC(=O)c2ccc(NS(=O)(=O)C(C)(C)C)cc2N2CCC3(CC2)CC3)nc(N2CCC(F)(F)CC2)n1` [Example 6-14, N-(2-(4,4-Difluoropiperidin-1-yl)-6-methylpyrimidin-4-yl)-4-((1,1-dimethylethyl)sulfonamido)-2-(6-azaspiro[2.5]octan-6-yl)benzamide]: the half-inhibitory concentration (IC50) is 413 nM. Consider `Cc1cc(NC(=O)c2ccc(NS(=O)(=O)CCCO)cc2N2CCC3(CC2)CC3)nc(N2CCC(F)(F)CC2)n1` [Example 6-15, N-(2-(4,4-Difluoropiperidin-1-yl)-6-methylpyrimidin-4-yl)-4-((3-hydroxypropyl)sulfonamido)-2-(6-azaspiro[2.5]octan-6-yl)benzamide], for which the IC50 is 86 nM. For `Cc1cc(NC(=O)c2ccc(NS(=O)(=O)C3CC3)cc2N2CCC3(CC2)CC3)nc(N2CCC(F)(F)CC2)n1` [Example 6-16, 4-(Cyclopropanesulfonamido)-N-(2-(4,4-difluoropiperidin-1-yl)-6-methylpyrimidin-4-yl)-2-(6-azaspiro[2.5]octan-6-yl)benzamide], the IC50 amounted to 52 nM. Turning to `COCCS(=O)(=O)Nc1ccc(C(=O)Nc2cc(C)nc(N3CCC(F)(F)CC3)n2)c(N2CCC3(CC2)CC3)c1` [Example 6-17, N-(2-(4,4-Difluoropiperidin-1-yl)-6-methylpyrimidin-4-yl)-4-((2-methoxyethyl)sulfonamido)-2-(6-azaspiro[2.5]octan-6-yL)benzamide], the concentration for half-maximal inhibition (IC50) amounted to 32 nM. The same measure, in the same setting: as for `Cc1cc(NC(=O)c2ccc(NS(=O)(=O)CC3CC3)cc2N2CCC3(CC2)CC3)nc(N2CCC(F)(F)CC2)n1` [Example 6-18, 4-((Cyclopropylmethyl)sulfon-amido)-N-(2-(4,4-difluoropiperidin-1-yl)-6-methylpyrimidin-4-yl)-2-(6-azaspiro[2.5]octan-6-yl)benzamide], the figure is 85 nM; as for `Cc1cc(NC(=O)c2ccc(NS(=O)(=O)CC3(O)COC3)cc2N2CCC3(CC2)CC3)nc(N2CCC(F)(F)CC2)n1` [Example 6-19, N-(2-(4,4-Difluoropiperidin-1-yl)-6-methylpyrimidin-4-yl)-4-(((3-hydroxyoxetan-3-yl)methyl)sulfonamido)-2-(6-azaspiro[2.5]octan-6-yl)benzamide], 39 nM. With `Cc1cc(NC(=O)c2ccc(NS(=O)(=O)C(C)(C)CO)cc2N2CCC3(CC2)CC3)nc(N2CCC(F)(F)CC2)n1` [Example 6-20, N-(2-(4,4-Difluoropiperidin-1-yl)-6-methylpyrimidin-4-yl)-4-((2-hydroxy-1,1-dimethylethyl)sulfonamido)-2-(6-azaspiro[2.5]octan-6-yl)benzamide], the 50% inhibitory concentration (IC50) was determined as 49 nM. Regarding `Cc1cc(NC(=O)c2ccc(NS(C)(=O)=O)cc2N2CCC3(CC2)CC3)nc(N2CCC(F)(F)CC2)n1` [Example 6-21, N-(2-(4,4-Difluoropiperidin-1-yl)-6-methylpyrimidin-4-yl)-4-(methylsulfonamido)-2-(6-azaspiro[2.5]octan-6-yl)benzamide], the concentration for half-maximal inhibition (IC50) was determined as 39 nM.
